Our source for the T/C values is PubChem BioAssay AID256 (DTP/NCI, 2004).

Values joined by “and” are separate entries in the source; they are usually repeats but may differ in a detail not shown here. Equal entries are not always repeated. Toxic doses and inconclusive results are not listed.

The assay relates to CD2F1 mice, L1210 leukemia ip, survival T/C. Briefly: NCI In Vivo Anticancer Drug Screen. Data for tumor model L1210 Leukemia (intraperitoneal) in CD2F1 (CDF1) mice. The note with it: higher = longer survival. The method in brief:
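Mice carrying a transplanted tumor received test compound or vehicle alone. The value is the measurement in the treated group divided by that in the vehicle-treated control group.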

[1] abbreviates: endpoint: mean survival time, dose: 100.0 mg/kg/injection, schedule: Q01DX009 (ip), vehicle: saline with Tween-80.
[2] abbreviates: endpoint: mean survival time, dose: 200.0 mg/kg/injection, schedule: Q01DX009 (ip), vehicle: saline with Tween-80.
[3] abbreviates: endpoint: mean survival time, dose: 400.0 mg/kg/injection, schedule: Q01DX009 (ip), vehicle: saline with Tween-80.
Setting [4] is: endpoint: mean survival time, dose: 100.0 mg/kg/injection, schedule: Q04DX003 (ip), vehicle: saline with Tween-80.
Setting [5] is: endpoint: mean survival time, dose: 200.0 mg/kg/injection, schedule: Q04DX003 (ip), vehicle: saline with Tween-80.
Setting [6] is: endpoint: mean survival time, dose: 400.0 mg/kg/injection, schedule: Q04DX003 (ip), vehicle: saline with Tween-80.
[7] abbreviates: endpoint: mean survival time, dose: 100.0 mg/kg/injection, schedule: Q01DX001 (ip), vehicle: saline with Tween-80.
The mark [8] stands for this setting: endpoint: mean survival time, dose: 25.0 mg/kg/injection, schedule: Q01DX009 (ip), vehicle: saline with Tween-80.
Setting [9] is: endpoint: mean survival time, dose: 50.0 mg/kg/injection, schedule: Q01DX009 (ip), vehicle: saline with Tween-80.
The mark [10] stands for this setting: endpoint: mean survival time, dose: 75.0 mg/kg/injection, schedule: Q01DX001 (ip), vehicle: saline.

In the case of `CCN1c2ccccc2Sc2cc(C=O)ccc21`, the T/C is 97 % of control (endpoint: mean survival time, dose: 50.0 mg/kg/injection, schedule: Q01DX009 (ip), vehicle: Klucel (hydroxypropylcellulose) (HPC)) and 108 % of control (endpoint: mean survival time, dose: 100.0 mg/kg/injection, schedule: Q01DX009 (ip), vehicle: Klucel (hydroxypropylcellulose) (HPC)).

`N#CC(C#N)=C1c2ccccc2C(=O)c2ccccc21`: the T/C was 90 % of control under setting [1], 86 % of control under setting [2] and 90 % of control under setting [3].

In the case of `CC(=O)OC(c1ccccc1)C(Cl)(Cl)Cl` (configuration not stated), the T/C is 100 % of control under setting [4], 105 % of control under setting [5] and 105 % of control under setting [6].

`O=P(O)(O)c1ccc(I)cc1`: the T/C was 94 % of control (endpoint: mean survival time, dose: 50.0 mg/kg/injection, schedule: Q04DX003 (ip), vehicle: saline); 94 % of control (endpoint: mean survival time, dose: 100.0 mg/kg/injection, schedule: Q04DX003 (ip), vehicle: saline); 98 % of control (endpoint: mean survival time, dose: 200.0 mg/kg/injection, schedule: Q04DX003 (ip), vehicle: saline).

Turning to `CC(C)(O)C1OCC(C2CCC3(C)C4=CCC5C(C)(C)C(O)CCC5(C)C4CCC23C)CC1O` (configuration not stated), the T/C runs as follows: (endpoint: mean survival time, dose: 2.5 mg/kg/injection, schedule: Q01DX009 (ip), vehicle: Klucel (hydroxypropylcellulose) (HPC)) 94 % of control; (endpoint: mean survival time, dose: 5.0 mg/kg/injection, schedule: Q01DX009 (ip), vehicle: Klucel (hydroxypropylcellulose) (HPC)) 103 % of control; (endpoint: mean survival time, dose: 10.0 mg/kg/injection, schedule: Q01DX009 (ip), vehicle: Klucel (hydroxypropylcellulose) (HPC)) 88 % of control.

For the compound `CN(C)CN1C(=O)S/C(=C2\C(=O)N(CN(C)C)c3ccccc32)C1=O`, the T/C is 100 % of control (endpoint: median survival time, dose: 50.0 mg/kg/injection, schedule: Q01DX005 (ip), vehicle: Klucel (hydroxypropylcellulose) (HPC)); 98 % of control (endpoint: median survival time, dose: 100.0 mg/kg/injection, schedule: Q01DX005 (ip), vehicle: Klucel (hydroxypropylcellulose) (HPC)); 101 % of control (endpoint: median survival time, dose: 200.0 mg/kg/injection, schedule: Q01DX005 (ip), vehicle: Klucel (hydroxypropylcellulose) (HPC)).

On to `CCc1c(Br)c(CC)c(CC)c(Br)c1CC`, for which the T/C runs as follows: under setting [7], 105 % of control; under setting [1], 104 % of control; (endpoint: mean survival time, dose: 200.0 mg/kg/injection, schedule: Q01DX001 (ip), vehicle: saline with Tween-80) 95 % of control; under setting [2], 101 % of control; (endpoint: mean survival time, dose: 400.0 mg/kg/injection, schedule: Q01DX001 (ip), vehicle: saline with Tween-80) 103 % of control; under setting [3], 96 % of control.

In the case of `O=C1OC(c2ccc(Cl)cc2)=N/C1=C\c1ccccc1`, the T/C was 97 % of control (endpoint: mean survival time, dose: 100.0 mg/kg/injection, schedule: Q01DX009 (ip), vehicle: acetone) and 101 % of control (endpoint: mean survival time, dose: 200.0 mg/kg/injection, schedule: Q01DX009 (ip), vehicle: acetone).

For `CCOC(=O)C(c1ccccc1)P(=O)(OCC)OCC` (configuration not stated), the T/C runs as follows: (endpoint: mean survival time, dose: 100.0 mg/kg/injection, schedule: Q04DX002 (ip), vehicle: saline with Tween-80) 111 % of control; (endpoint: mean survival time, dose: 200.0 mg/kg/injection, schedule: Q04DX002 (ip), vehicle: saline with Tween-80) 100 % of control; (endpoint: mean survival time, dose: 400.0 mg/kg/injection, schedule: Q04DX002 (ip), vehicle: saline with Tween-80) 100 % of control.

Regarding `CC(C)C(C)/C=C/CC(C)C1CCC2C1(C)CCCC21C2CC3=C(CC(OC(=O)NC(N)=O)CC3)C21` (configuration not stated), the T/C under setting [1] is 95 % of control, the T/C under setting [2] was 104 % of control and the T/C under setting [3] is 87 % of control.

On to `Cc1ccc(S(=O)(=O)Nc2ccccc2-c2nc3cc(Cl)ccc3c(=O)o2)cc1`, for which the T/C is 87 % of control under setting [4], 98 % of control under setting [5] and 98 % of control under setting [6].

`O=C(NC(Cc1ccc(I)cc1)C(=O)O)c1cccc(Br)c1` (configuration not stated): the T/C was 105 % of control (endpoint: median survival time, dose: 25.0 mg/kg/injection, schedule: Q01DX009 (ip), vehicle: Klucel (hydroxypropylcellulose) (HPC)); 97 % of control (endpoint: median survival time, dose: 50.0 mg/kg/injection, schedule: Q01DX009 (ip), vehicle: Klucel (hydroxypropylcellulose) (HPC)); 94 % of control (endpoint: median survival time, dose: 100.0 mg/kg/injection, schedule: Q01DX009 (ip), vehicle: Klucel (hydroxypropylcellulose) (HPC)); 94 % of control (endpoint: median survival time, dose: 200.0 mg/kg/injection, schedule: Q01DX009 (ip), vehicle: Klucel (hydroxypropylcellulose) (HPC)).

On to `NCCCCC1(CCCCN)OCCO1`, for which the T/C runs as follows: (endpoint: mean survival time, dose: 25.0 mg/kg/injection, schedule: Q01DX009 (ip), vehicle: saline) 95 % of control; (endpoint: mean survival time, dose: 25.0 mg/kg/injection, schedule: Q04DX002 (ip), vehicle: saline) 102 % of control; (endpoint: mean survival time, dose: 50.0 mg/kg/injection, schedule: Q01DX009 (ip), vehicle: saline) 102 % of control; (endpoint: mean survival time, dose: 50.0 mg/kg/injection, schedule: Q04DX002 (ip), vehicle: saline) 95 % of control; under setting [7], 94 % of control.

As to `O=C(N/N=C/c1ccc(Cl)cc1)c1ccc(Cl)cc1`, the T/C is, setting by setting: under setting [4], 101 % of control; under setting [5], 93 % of control; under setting [6], 108 % of control.

Consider `O=NN(CCF)C(=O)NC1CCC(NC(=O)N(CCF)N=O)CC1` (configuration not stated), for which the T/C runs as follows: (endpoint: mean survival time, dose: 3.13 mg/kg/injection, schedule: Q01DX009 (ip), vehicle: saline with Tween-80) 117 % of control; (endpoint: mean survival time, dose: 12.5 mg/kg/injection, schedule: Q01DX009 (ip), vehicle: saline with Tween-80) 240 % of control; under setting [8], 273 % of control and 289 % of control; under setting [9], 234 % of control.

Consider `C1=Nc2c(ccc3ccccc23)CS1`, for which the T/C by setting is: (endpoint: mean survival time, dose: 25.0 mg/kg/injection, schedule: Q04DX002 (ip), vehicle: other) 91 % of control; (endpoint: mean survival time, dose: 50.0 mg/kg/injection, schedule: Q04DX002 (ip), vehicle: other) 95 % of control; (endpoint: mean survival time, dose: 100.0 mg/kg/injection, schedule: Q04DX002 (ip), vehicle: other) 100 % of control.

`Nc1ccc(C(=O)Oc2ccc([N+](=O)[O-])cc2)cc1`: the T/C was 108 % of control under setting [1], 102 % of control under setting [2] and 98 % of control under setting [3].

With `N=C(N)c1nn(C2OC(CO)C(O)C2O)c2nc[nH]c(=O)c12` (configuration not stated), the T/C is, setting by setting: (endpoint: median survival time, dose: 3.12 mg/kg/injection, schedule: Q01DX005 (ip), vehicle: Klucel + Tween-80) 122 % of control; (endpoint: median survival time, dose: 12.5 mg/kg/injection, schedule: Q01DX005 (ip), vehicle: Klucel + Tween-80) 153 % of control; (endpoint: median survival time, dose: 25.0 mg/kg/injection, schedule: Q01DX005 (ip), vehicle: Klucel + Tween-80) 120 % of control and 89 % of control.

As for `O=P(O)(c1ccccc1CBr)c1ccccc1CBr`, the T/C under setting [10] is 90 % of control.

With `CCCC/C=C/C=C/CCCC`, the T/C is 103 % of control under setting [9], 92 % of control under setting [1] and 107 % of control under setting [2].

As to `Clc1ccc(-c2nc3ccccc3s2)cc1`, the T/C (endpoint: mean survival time, dose: 100.0 mg/kg/injection, schedule: Q01DX001 (ip), vehicle: Klucel (hydroxypropylcellulose) (HPC)) is 100 % of control; the T/C (endpoint: mean survival time, dose: 200.0 mg/kg/injection, schedule: Q01DX001 (ip), vehicle: Klucel (hydroxypropylcellulose) (HPC)) was 95 % of control; the T/C (endpoint: mean survival time, dose: 400.0 mg/kg/injection, schedule: Q01DX001 (ip), vehicle: Klucel (hydroxypropylcellulose) (HPC)) is 100 % of control.

Turning to `O/N=C/c1ccccc1`, the T/C is, setting by setting: (endpoint: mean survival time, dose: 11.0 mg/kg/injection, schedule: Q01DX009 (ip), vehicle: saline with Tween-80) 108 % of control; (endpoint: mean survival time, dose: 16.5 mg/kg/injection, schedule: Q01DX009 (ip), vehicle: saline with Tween-80) 94 % of control; (endpoint: mean survival time, dose: 25.0 mg/kg/injection, schedule: Q01DX001 (ip), vehicle: saline) 97 % of control; under setting [8], 97 % of control; (endpoint: mean survival time, dose: 37.5 mg/kg/injection, schedule: Q01DX009 (ip), vehicle: saline with Tween-80) 95 % of control; (endpoint: mean survival time, dose: 50.0 mg/kg/injection, schedule: Q01DX001 (ip), vehicle: saline) 97 % of control. Moreover, the T/C under setting [7] was 97 % of control and the T/C (endpoint: mean survival time, dose: 100.0 mg/kg/injection, schedule: Q01DX001 (ip), vehicle: saline) was 101 % of control.

Regarding `O=C1C=C(c2ccccc2)CC1`, the T/C is 104 % of control under setting [9], 93 % of control under setting [1], 101 % of control under setting [4] and 100 % of control under setting [5].

In the case of `Cc1cc(=O)[nH]c(-n2nc(N)nc2N)n1`, the T/C by setting is: under setting [10], 107 % of control; (endpoint: mean survival time, dose: 150.0 mg/kg/injection, schedule: Q01DX001 (ip), vehicle: saline) 101 % of control; (endpoint: mean survival time, dose: 300.0 mg/kg/injection, schedule: Q01DX001 (ip), vehicle: saline) 101 % of control.

With `N#CCCC(CCC#N)c1ccccc1`, the T/C is, setting by setting: under setting [1], 107 % of control; under setting [4], 106 % of control; under setting [2], 103 % of control; under setting [5], 93 % of control; under setting [3], 105 % of control; under setting [6], 104 % of control.
